Data reported in article PMC9227231, “TP-CSO: A Triptolide Prodrug for Pancreatic Cancer Treatment” (Molecules, 2022).

Tests used:
[1] = Pharmacokinetics after gavage administration to rats (plasma level of free TP by LC-MS); design: species or system SD rats; conditions: Sprague-Dawley, rat, in vivo, po, 0.4 mg/kg
Experimental: To evaluate the in vivo pharmacokinetics of TP-CSO conjugate, the SD rats (250–300 g, Sprague-Dawley rat) fasted 12 h in advance and were randomized into two groups (n = 5) and respectively treated with TP (0.4 mg/kg) and TP-CSO (0.4 mg/kg, TP equivalent). The blood samples (500 µL) were collected through the ocular chorionic vein at 5, 15, 30, 60, 120, 180, 240, 360, 480 and 720 min after intragastric administration. Subsequently, the samples were immediately centrifuged at 3500 rpm for 15 min. An upper plasma sample was collected and kept at −80 °C.
Sample processing: to the plasma sample,10 µL of ferulic acid (2.5 ng/mL) was added as internal standard. The sample (100 µL) was placed in a 1.5 mL Eppendorf tube, to which 800 µL of ethyl acetate was added and vortexed for 3 min, and this was centrifuged at 12,000 rpm for 15 min. The upper solution was taken and blow dried with nitrogen at room temperature. The dried residue was dissolved in 100 µL of methanol-water (60:40, v/v) solution, vortexed for 3 min, subsequently centrifuged at 12,000 rpm for 15 min at 4 °C and the upper solution was collected into a 2 mL vial.
10 μL of sample was injected into a Watets C-18 column (2.1 mm × 50 mm, 1.8 µm) on a Sciex X500R QTOF Mass Spectrometer (UPLC-MS; Framingham, MA, USA). The column was eluted with methanol (A)/water (B) solution at a flow rate of 0.3 mL/min and a column temperature of 35 °C (0–6 min, A: 40%–90%; 6–8.1 min, A: 90%; 8.1–10 min, A: 40%). The operating conditions of UPLC-MS are as follows: electrospray ionization source (ESI), negative ionization mode; Ion spray voltage (ISV), 3500 V; Drying temperature, 325 °C; Flow rate of desolvent gas, 8.0 L/min; Atomization temperature, 350 °C. The pyrolysis energy and impact energy of TP were 120 V and 10 V, respectively, and those of ferulic acid were 90 V and 10 V, respectively. A multiple reaction monitoring mode (MRM) was used to monitor the transformation of TP from m/z [M-H] 359.1→241.1 and ferulic acid m/z [M-H] 193.1→134.1 to productions.

[2] = In vivo toxicity in healthy C57 mice
Experimental: The 30 normal C57 mice (20–25 g) were randomly divided into a normal saline group, TP (0.4 mg/kg) group and TP-CSO group (equivalent TP of 0.2, 0.4 and 0.6 mg/kg), respectively. The drugs were administered by a gavage once every two days for seven times. The body weight and fatality rate were recorded daily. On the 14th day, blood was collected from the eyes, and the organs were harvested after the mice were euthanized. A Beckman CX5 automated analyzer detected renal function indexes, liver function indexes (serum alanine aminotransferase (ALT), aspartic aminotransferase (AST)), and (blood urea nitrogen (BUN) creatinine (CRE)).

Panco2 tumor = assay: In vivo antitumor study in Panco2 tumor-bearing mice
Experimental: The antitumor activity of the TP-CSO conjugate was evaluated on Panco2 tumor-bearing mice. First, C57 mice (20–25 g) were implanted subcutaneously with 2 × 10^6 Panco2 cells. When the tumor grew up to about 100 mm^3, the mice were orally administrated with 0.4 mg/kg TP and TP-CSO (0.2, 0.4 and 0.6 mg TP equivalent/kg) once every two days, respectively. The body weight and fatality rate were recorded. Mice in control groups were orally administrated with saline solution. The tumor volume was measured with calipers and calculated by the (1/2) (a × b²) formula (a is long diameter, b is short diameter). After 14 days of intragastric administration, the mice were sacrificed, and livers, kidney, and tumors were harvested.

[3] = healthy C57 mice, day 14, 0.4 mg/kg TP equivalent (medium dose)

CC(C)[C@]12O[C@H]1[C@@H]1O[C@]13[C@]1(O[C@H]1C[C@H]1C4=C(CC[C@@]13C)C(=O)OC4)[C@@H]2O [TP, Triptolide]
AUC(0-inf) [1]: 0.061 ng·h/mL | Cmax [1]: 0.021 ng/mL | Tmax [1]: 15 min | half-life [1]: 42.6 min | BUN and CRE levels [2, 3]: significantly lower than in the control group | serum ALT and AST levels [2, 3]: obviously higher than those in other groups | body weight vs control group ([2]; healthy C57 mice, gavage once every two days x7, 0.4 mg/kg TP equivalent (medium dose)): obvious body weight loss but without lethality | minimum dose causing the death of mice ([2]; mice, preliminary experiments): about 0.6 mg/kg | tumor-inhibition rate (TIR) (Panco2 tumor; Panco2-bearing mice, oral once every two days, end of study, 0.4 mg TP equivalent/kg (medium dose)): 43.39% | body weight vs control group (Panco2 tumor; mouse, in vivo, po, 0.4 mg/kg): obvious decrease in body weight
